{"source": "patent US11817195B2", "about": "“Methods for lowering blood sugar with a gliflozin sodium-glucose cotransport 2 inhibitor pharmaceutical composition” (AstraZeneca UK Limited, priority 2018, dated 2023)", "origin": "cited, not measured here", "key": {"[1]": {"conditions": "at least 14 double-blind, placebo-controlled, randomized studies"}}, "data": [{"smiles": "Cc1ccc([C@@H]2O[C@H](CO)[C@@H](O)[C@H](O)[C@H]2O)cc1Cc1ccc(-c2ccc(F)cc2)s1", "note": "[canagliflozin, (2S,3R,4R,5S,6R)-2-[3-[[5-(4-fluorophenyl)thiophen-2-yl]methyl]-4-methylphenyl]-6-(hydroxymethyl)oxane-3,4,5-triol]", "values": [{"measurement": "incidence of hyperkalemia", "setting": "patients with moderate renal impairment, Mikhail, Curr. Drug Safety 9:127-132 (2014)", "value": "higher incidence of hyperkalemia"}]}, {"smiles": "CCOc1ccc(Cc2cc([C@@H]3O[C@H](CO)[C@@H](O)[C@H](O)[C@H]3O)ccc2Cl)cc1", "note": "[dapagliflozin, (2S,3R,4R,5S,6R)-2-[4-chloro-3-[(4-ethoxyphenyl)methyl]phenyl]-6-(hydroxymethyl)oxane-3,4,5-triol]", "values": [{"measurement": "risk of hyperkalemia", "setting": "administration of the drug", "value": "not correlated with an increased risk of hyperkalemia"}, {"measurement": "efficacy to lower blood sugar", "setting": "[1]", "value": "demonstrated"}]}]}
